The values below come from paper PMC10175918 (Communications Biology, 2023).

Holding throughout (experiment): TGFα-shedding assay-based GPCR screening with chimeric Gα subunit proteins
Common to all, as to assay type: cell-based

The target in assay [1] is T1, 348 GPCRs (Homo sapiens, UniProt P08912).
T1 construct: expressed in transfected cells; host or cells: HEK293A
T1 sequence (P08912 1-532): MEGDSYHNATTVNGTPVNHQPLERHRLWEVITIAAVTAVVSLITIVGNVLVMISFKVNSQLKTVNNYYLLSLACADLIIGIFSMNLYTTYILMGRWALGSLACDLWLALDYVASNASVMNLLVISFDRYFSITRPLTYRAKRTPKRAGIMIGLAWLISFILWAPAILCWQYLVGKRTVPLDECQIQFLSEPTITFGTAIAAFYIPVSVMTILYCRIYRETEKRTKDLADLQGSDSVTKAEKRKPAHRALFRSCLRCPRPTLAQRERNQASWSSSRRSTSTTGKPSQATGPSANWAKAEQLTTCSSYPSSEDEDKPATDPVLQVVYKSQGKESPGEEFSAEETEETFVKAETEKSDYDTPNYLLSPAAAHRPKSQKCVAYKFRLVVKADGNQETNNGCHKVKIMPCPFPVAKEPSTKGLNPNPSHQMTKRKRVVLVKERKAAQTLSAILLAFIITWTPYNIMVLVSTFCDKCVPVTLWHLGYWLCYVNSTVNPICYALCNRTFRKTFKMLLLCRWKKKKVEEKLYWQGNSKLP

For assay [2], the target named is T2, 348 GPCRs (Homo sapiens, UniProt Q86VZ1).
T2 construct: expressed in transfected cells; host or cells: HEK293A

The target of assay [3] is T3, 348 GPCRs (Homo sapiens, UniProt Q99788).
T3 construct: expressed in transfected cells; host or cells: HEK293A
T3 sequence (Q99788 1-373): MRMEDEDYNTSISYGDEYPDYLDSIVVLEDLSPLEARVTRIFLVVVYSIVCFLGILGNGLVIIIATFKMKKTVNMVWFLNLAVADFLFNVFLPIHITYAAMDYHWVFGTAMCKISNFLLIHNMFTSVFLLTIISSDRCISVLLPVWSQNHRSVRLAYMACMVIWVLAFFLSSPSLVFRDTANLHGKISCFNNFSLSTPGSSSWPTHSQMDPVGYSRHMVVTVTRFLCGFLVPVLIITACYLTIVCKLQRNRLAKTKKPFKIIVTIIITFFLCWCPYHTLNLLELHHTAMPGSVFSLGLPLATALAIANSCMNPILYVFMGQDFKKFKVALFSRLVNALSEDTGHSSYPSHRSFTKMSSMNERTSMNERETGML
The note with it: GPCR CMKLR1 (chemerin chemokine-like receptor 1).

For assay [4], the target named is T4, 348 GPCRs (Homo sapiens, UniProt Q86SQ6).
T4 construct: expressed in transfected cells; host or cells: HEK293A
T4 sequence (Q86SQ6 1-560): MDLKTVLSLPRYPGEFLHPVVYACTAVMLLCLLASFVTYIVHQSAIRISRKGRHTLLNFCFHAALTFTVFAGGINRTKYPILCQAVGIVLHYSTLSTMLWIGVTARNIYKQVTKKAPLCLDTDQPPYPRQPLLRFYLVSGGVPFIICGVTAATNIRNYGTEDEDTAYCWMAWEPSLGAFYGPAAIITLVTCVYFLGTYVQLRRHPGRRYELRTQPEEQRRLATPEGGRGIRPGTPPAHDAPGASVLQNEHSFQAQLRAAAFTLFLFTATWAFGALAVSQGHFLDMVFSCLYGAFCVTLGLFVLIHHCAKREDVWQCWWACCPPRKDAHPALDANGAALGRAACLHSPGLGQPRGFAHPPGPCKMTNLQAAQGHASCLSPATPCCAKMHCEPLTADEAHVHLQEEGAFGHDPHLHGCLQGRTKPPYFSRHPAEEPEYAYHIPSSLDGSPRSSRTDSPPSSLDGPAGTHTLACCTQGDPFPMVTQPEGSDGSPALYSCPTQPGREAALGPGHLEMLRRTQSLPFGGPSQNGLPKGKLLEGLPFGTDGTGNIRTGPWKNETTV

In assay [5] the target is 348 GPCRs (Homo sapiens, UniProt P31391). As to conditions: 10µM, Favipiravir 100μM.
For assay [6], the target named is 348 GPCRs (Homo sapiens, UniProt P28221). As to conditions: 10µM, Favipiravir 100μM.
For assay [7], the target named is T5, 348 GPCRs (Homo sapiens, UniProt O00254).
T5 construct: expressed in transfected cells; host or cells: HEK293A
T5 sequence (O00254 22-374): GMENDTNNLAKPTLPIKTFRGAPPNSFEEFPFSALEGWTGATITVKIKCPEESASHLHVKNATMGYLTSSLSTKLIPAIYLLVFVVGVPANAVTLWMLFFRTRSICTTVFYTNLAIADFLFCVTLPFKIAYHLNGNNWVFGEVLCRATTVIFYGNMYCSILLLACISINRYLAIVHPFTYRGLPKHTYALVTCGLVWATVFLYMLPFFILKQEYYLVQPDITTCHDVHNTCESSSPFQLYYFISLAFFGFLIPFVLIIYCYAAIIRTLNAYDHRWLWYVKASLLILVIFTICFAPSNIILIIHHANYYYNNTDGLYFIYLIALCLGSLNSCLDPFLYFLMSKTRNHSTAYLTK
As to conditions: 10µM, Favipiravir 100μM.

Assay [8] addresses T6, 348 GPCRs (Homo sapiens, UniProt Q86Y34).
T6 construct: expressed in transfected cells; host or cells: HEK293A
The note with it: 10µM, Favipiravir 100μM.

Assay [9] concerns the target T7, 348 GPCRs (Homo sapiens, UniProt O00270).
T7 construct: expressed in transfected cells; host or cells: HEK293A
As to conditions: 10µM, Favipiravir 100μM.

Where [10] appears, read: SSTR4 (somatostatin receptor 4), read-out: % GPCR activation compared to TPA.
[11] abbreviates: 5-HT1D (5-hydroxytryptamine receptor 1D), read-out: % GPCR activation compared to TPA.
Where [12] appears, read: F2RL2 (coagulation factor II (thrombin) receptor-like 2), read-out: % GPCR activation compared to TPA.
Setting [13] is: GPR97 (Adhesion G Protein-Coupled Receptor G3 (ADGRG3)), read-out: % GPCR activation compared to TPA.
[14] abbreviates: GPR31 (G Protein-Coupled Receptor 31), read-out: % GPCR activation compared to TPA.
[15] abbreviates: read-out: % GPCR activation compared to TPA, GPCR M5 (Muscarinic acetylcholine receptor M5).
The mark [16] stands for this setting: read-out: % GPCR activation compared to TPA, GPCR P2Y8 (purinergic receptor P2Y, G-protein coupled, 8).
Where [17] appears, read: read-out: % GPCR activation compared to TPA, GPCR GPR123 (Adhesion G Protein-Coupled Receptor A1 (ADGRA1)).
[18] abbreviates: read-out: % GPCR activation compared to TPA, SSTR4 (somatostatin receptor 4).
Setting [19] is: read-out: % GPCR activation compared to TPA, 5-HT1D (5-hydroxytryptamine receptor 1D).
[20] abbreviates: read-out: % GPCR activation compared to TPA, F2RL2 (coagulation factor II (thrombin) receptor-like 2).
Where [21] appears, read: read-out: % GPCR activation compared to TPA, GPR97 (Adhesion G Protein-Coupled Receptor G3 (ADGRG3)).
Where [22] appears, read: read-out: % GPCR activation compared to TPA, GPR31 (G Protein-Coupled Receptor 31).
[23] abbreviates: GPCR M5 (Muscarinic acetylcholine receptor M5), read-out: % GPCR activation compared to TPA.
[24] abbreviates: GPCR P2Y8 (purinergic receptor P2Y, G-protein coupled, 8), read-out: % GPCR activation compared to TPA.
Setting [25] is: GPCR GPR123 (Adhesion G Protein-Coupled Receptor A1 (ADGRA1)), read-out: % GPCR activation compared to TPA.

Where two headings read alike, the source gives them in different places.

Sequence of 348 GPCRs (Homo sapiens, UniProt P31391) (P31391 whole entry): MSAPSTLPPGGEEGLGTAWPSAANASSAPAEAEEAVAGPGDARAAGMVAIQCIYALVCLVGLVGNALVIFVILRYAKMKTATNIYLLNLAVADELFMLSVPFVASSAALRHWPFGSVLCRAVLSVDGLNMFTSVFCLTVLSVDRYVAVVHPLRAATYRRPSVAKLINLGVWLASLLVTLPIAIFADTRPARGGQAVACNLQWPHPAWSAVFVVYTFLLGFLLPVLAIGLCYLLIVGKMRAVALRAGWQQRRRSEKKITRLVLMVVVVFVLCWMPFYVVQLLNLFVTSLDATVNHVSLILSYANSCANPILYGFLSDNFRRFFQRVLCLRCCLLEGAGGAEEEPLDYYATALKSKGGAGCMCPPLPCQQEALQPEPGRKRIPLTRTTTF
T7 sequence (O00270 whole entry): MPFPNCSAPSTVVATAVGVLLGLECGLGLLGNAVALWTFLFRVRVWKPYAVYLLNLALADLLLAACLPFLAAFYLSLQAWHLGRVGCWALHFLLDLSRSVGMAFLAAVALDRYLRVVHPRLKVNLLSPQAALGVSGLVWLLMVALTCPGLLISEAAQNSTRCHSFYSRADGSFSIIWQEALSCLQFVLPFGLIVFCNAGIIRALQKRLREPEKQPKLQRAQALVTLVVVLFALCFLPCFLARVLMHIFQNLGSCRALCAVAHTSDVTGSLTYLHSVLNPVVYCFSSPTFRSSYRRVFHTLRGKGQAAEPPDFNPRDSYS
T6 sequence (Q86Y34 21-549): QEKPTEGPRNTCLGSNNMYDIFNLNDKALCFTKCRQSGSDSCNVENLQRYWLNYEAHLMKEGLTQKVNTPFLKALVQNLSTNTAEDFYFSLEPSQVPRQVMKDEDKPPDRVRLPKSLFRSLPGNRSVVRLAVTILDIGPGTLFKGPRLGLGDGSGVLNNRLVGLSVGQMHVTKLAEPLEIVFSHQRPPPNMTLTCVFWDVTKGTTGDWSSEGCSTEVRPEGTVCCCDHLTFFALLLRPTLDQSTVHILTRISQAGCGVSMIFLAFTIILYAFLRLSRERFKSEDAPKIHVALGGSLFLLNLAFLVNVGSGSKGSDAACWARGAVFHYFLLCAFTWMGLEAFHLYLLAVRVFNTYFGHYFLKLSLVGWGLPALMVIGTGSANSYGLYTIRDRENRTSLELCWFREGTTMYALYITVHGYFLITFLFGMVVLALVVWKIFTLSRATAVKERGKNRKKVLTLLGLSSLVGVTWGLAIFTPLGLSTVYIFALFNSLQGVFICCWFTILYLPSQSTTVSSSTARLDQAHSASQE
Sequence of 348 GPCRs (Homo sapiens, UniProt P28221) (P28221 whole entry): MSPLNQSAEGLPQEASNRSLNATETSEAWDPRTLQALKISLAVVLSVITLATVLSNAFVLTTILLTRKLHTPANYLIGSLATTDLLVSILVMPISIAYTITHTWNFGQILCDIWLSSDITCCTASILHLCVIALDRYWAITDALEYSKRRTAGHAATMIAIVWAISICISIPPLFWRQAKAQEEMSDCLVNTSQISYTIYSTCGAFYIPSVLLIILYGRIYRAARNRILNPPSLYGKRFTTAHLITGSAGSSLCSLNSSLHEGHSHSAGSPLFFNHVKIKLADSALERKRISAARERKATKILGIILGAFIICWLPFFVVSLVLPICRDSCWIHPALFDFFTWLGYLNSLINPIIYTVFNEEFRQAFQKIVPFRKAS
T2 sequence (Q86VZ1 whole entry): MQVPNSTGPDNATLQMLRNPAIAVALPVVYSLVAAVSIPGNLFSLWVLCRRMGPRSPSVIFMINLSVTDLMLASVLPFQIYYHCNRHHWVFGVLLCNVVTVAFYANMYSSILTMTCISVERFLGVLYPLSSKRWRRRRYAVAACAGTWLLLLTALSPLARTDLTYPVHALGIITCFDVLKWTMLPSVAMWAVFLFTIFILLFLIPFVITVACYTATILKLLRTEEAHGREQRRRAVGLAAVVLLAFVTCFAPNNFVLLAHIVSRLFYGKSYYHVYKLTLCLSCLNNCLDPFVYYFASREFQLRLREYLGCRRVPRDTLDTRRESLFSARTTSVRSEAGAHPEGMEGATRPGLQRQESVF

As for `NC(=O)c1nc(F)cnc1O` [favipiravir, 6-fluoro-3-hydroxy-2-pyrazinecarboxamide], the activation at 100 µM on 348 GPCRs [1] (GPCR M5 (Muscarinic acetylcholine receptor M5), 100μM, read-out: % GPCR activation compared to TPA) was 0.695%; at 348 GPCRs [2] (GPCR P2Y8 (purinergic receptor P2Y, G-protein coupled, 8), 100μM, read-out: % GPCR activation compared to TPA), 1.7%; on 348 GPCRs [4] (GPCR GPR123 (Adhesion G Protein-Coupled Receptor A1 (ADGRA1)), 100μM, read-out: % GPCR activation compared to TPA) it was -1.45%; on 348 GPCRs [6] (setting [11]) it was -9.38%; at 348 GPCRs [8] (setting [13]) it was -1.79%; at 348 GPCRs [9] (setting [14]), -1.25%. Moreover, the “% GPCR activation compared to TPA” value at 348 GPCRs [3] (100μM) came to 2.983%. The values for the activation at 10 µM on 348 GPCRs [5] (setting [10]) and on 348 GPCRs [7] (setting [12]) were -0.164% and -0.958%, respectively.

With `CC(C)OC(=O)[C@H](C)N[P@](=O)(OC[C@H]1O[C@@H](n2ccc(=O)[nH]c2=O)[C@](C)(F)[C@@H]1O)Oc1ccccc1` [sofosbuvir], the activation at 10 µM is -1.43% at 348 GPCRs [1] (setting [15]); -3.86% at 348 GPCRs [2] (setting [16]); 0.445% on 348 GPCRs [4] (setting [17]); 0.279% at 348 GPCRs [5] (setting [18]); 1.05% on 348 GPCRs [7] (setting [20]). For the same compound, the “% GPCR activation compared to TPA” value on 348 GPCRs [3] (10µM) is recorded as -0.9389%. Besides, the activation at 100 µM was 0.836% at 348 GPCRs [6] (setting [19]), -1.21% at 348 GPCRs [8] (setting [21]) and -0.455% on 348 GPCRs [9] (setting [22]).

For `CCC(CC)COC(=O)[C@H](C)N[P@](=O)(OC[C@H]1O[C@@](C#N)(c2ccc3c(N)ncnn23)[C@H](O)[C@@H]1O)Oc1ccccc1` [remdesivir], the activation at 10 µM on 348 GPCRs [1] (setting [15]) is -0.595%; at 348 GPCRs [2] (setting [16]) it was 6.38%; on 348 GPCRs [4] (setting [17]), -0.903%; at 348 GPCRs [5] (setting [18]), 0.732%; at 348 GPCRs [7] (setting [20]) it was -1.15%. Further, the “% GPCR activation compared to TPA” value at 348 GPCRs [3] (10µM) was -1.376%. Besides, the activation at 100 µM at 348 GPCRs [6] (setting [19]) is -5.77%; at 348 GPCRs [8] (setting [21]), -1.74%; on 348 GPCRs [9] (setting [22]) it was -1.64%.

Take `N#C[C@@]1(c2ccc3c(N)ncnn23)O[C@H](CO)[C@@H](O)[C@H]1O` [GS441524]: the activation at 10 µM at 348 GPCRs [1] (setting [23]) is 2.9%; on 348 GPCRs [2] (setting [24]), 1.71%; at 348 GPCRs [4] (setting [25]), 0.375%; on 348 GPCRs [5] (setting [10]), -0.36%; on 348 GPCRs [7] (setting [12]), -2.64%. In addition, the “% GPCR activation compared to TPA” value on 348 GPCRs [3] (10µM) is listed as -4.934%. Besides, the activation at 100 µM at 348 GPCRs [6] (setting [11]) is -9.87%; on 348 GPCRs [8] (setting [13]), -0.758%; at 348 GPCRs [9] (setting [14]), -1.59%.

Regarding `CC(C)C(=O)OC[C@H]1O[C@@H](n2ccc(NO)nc2=O)[C@H](O)[C@@H]1O` [molnupiravir], the activation at 10 µM on 348 GPCRs [1] (setting [23]) is -0.639%; at 348 GPCRs [2] (setting [24]), -9.1%; on 348 GPCRs [4] (setting [25]), -2.47%; on 348 GPCRs [5] (setting [10]), -1.09%; at 348 GPCRs [7] (setting [12]), -1.18%. In addition, the “% GPCR activation compared to TPA” value on 348 GPCRs [3] (10µM) is reported as -0.3127%. In addition, the activation at 100 µM is 0.705% on 348 GPCRs [6] (setting [11]), -1.08% at 348 GPCRs [8] (setting [13]) and -1.71% at 348 GPCRs [9] (setting [14]).
